Measurements as given in PubChem BioAssay (NCI).
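Where inhibition never reached the appropriate level, the endpoint shown equals the highest concentration tested. Otherwise, values were interpolated linearly from a five-concentration, 48-hour dose response in 96-well plates. GI50: concentration for 50% inhibition of growth. TGI denotes the concentration required for complete inhibition of growth.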

How the values were obtained:
Assay in all cases: NCI tumour cell line growth inhibition, 48 h
MOLT-4 leukemia = tested on: MOLT-4 leukemia
MDA-MB-435 = tested on: MDA-MB-435
SK-OV-3 ovarian = tested on: SK-OV-3 ovarian
OVCAR-5 ovarian = tested on: OVCAR-5 ovarian
NCI-H460 lung = tested on: NCI-H460 lung
MCF7 breast = tested on: MCF7 breast
SW-620 colon = tested on: SW-620 colon
SR leukemia = tested on: SR leukemia
PC-3 prostate = tested on: PC-3 prostate
SK-MEL-2 melanoma = tested on: SK-MEL-2 melanoma
HT29 colon = tested on: HT29 colon
UO-31 renal = tested on: UO-31 renal
U251 CNS = tested on: U251 CNS
TK-10 renal = tested on: TK-10 renal
ACHN renal = tested on: ACHN renal
SNB-75 CNS = tested on: SNB-75 CNS
CCRF-CEM leukemia = tested on: CCRF-CEM leukemia
OVCAR-3 ovarian = tested on: OVCAR-3 ovarian
NCI-H226 lung = tested on: NCI-H226 lung
RXF 393 renal = tested on: RXF 393 renal
EKVX NSCLC = tested on: EKVX NSCLC
M14 melanoma = tested on: M14 melanoma
HS 578T breast = tested on: HS 578T breast
HL-60(TB) leukemia = tested on: HL-60(TB) leukemia
HOP-62 NSCLC = tested on: HOP-62 NSCLC
CAKI-1 renal = tested on: CAKI-1 renal
NCI-H23 lung = tested on: NCI-H23 lung
LOX IMVI melanoma = tested on: LOX IMVI melanoma
DU-145 prostate = tested on: DU-145 prostate
SF-295 CNS = tested on: SF-295 CNS
SF-268 CNS = tested on: SF-268 CNS
HCC-2998 colon = tested on: HCC-2998 colon
COLO 205 colon = tested on: COLO 205 colon
OVCAR-8 ovarian = tested on: OVCAR-8 ovarian
SK-MEL-5 melanoma = tested on: SK-MEL-5 melanoma
MDA-MB-468 breast = tested on: MDA-MB-468 breast
UACC-62 melanoma = tested on: UACC-62 melanoma
HCT-116 colon = tested on: HCT-116 colon
A498 renal = tested on: A498 renal
NCI/ADR-RES ovarian = tested on: NCI/ADR-RES ovarian
SN12C renal = tested on: SN12C renal
KM12 colon = tested on: KM12 colon
RPMI-8226 leukemia = tested on: RPMI-8226 leukemia
OVCAR-4 ovarian = tested on: OVCAR-4 ovarian
A549 NSCLC = tested on: A549 NSCLC
NCI-H522 lung = tested on: NCI-H522 lung
MDA-MB-231 breast = tested on: MDA-MB-231 breast
SK-MEL-28 melanoma = tested on: SK-MEL-28 melanoma
786-0 renal = tested on: 786-0 renal
HCT-15 colon = tested on: HCT-15 colon
SF-539 CNS = tested on: SF-539 CNS
BT-549 breast = tested on: BT-549 breast
UACC-257 melanoma = tested on: UACC-257 melanoma
K-562 leukemia = tested on: K-562 leukemia
T-47D breast = tested on: T-47D breast
IGROV1 ovarian = tested on: IGROV1 ovarian
HOP-92 NSCLC = tested on: HOP-92 NSCLC
MALME-3M melanoma = tested on: MALME-3M melanoma
SNB-19 CNS = tested on: SNB-19 CNS

Compound `CSc1nc(-c2cccc(C)c2)c2cc(-c3ccccc3)n(C)c2n1` has a GI50 (MOLT-4 leukemia) of 4.47 µM, a TGI (MOLT-4 leukemia) of 37.7 µM and a GI50 (MDA-MB-435) of 2.86 µM. It also gave a TGI (MDA-MB-435) of 8.45 µM, a GI50 (SK-OV-3 ovarian) of 11.2 µM and a TGI (SK-OV-3 ovarian) of 52.1 µM. It also gave a GI50 (OVCAR-5 ovarian) of 18.6 µM, a TGI (OVCAR-5 ovarian) of over 100 µM and a GI50 (NCI-H460 lung) of 3.98 µM. For the same compound, the TGI (NCI-H460 lung) was 19.1 µM, the GI50 (MCF7 breast) was 5.88 µM and the TGI (MCF7 breast) was 41.8 µM. It also gave a GI50 (SW-620 colon) of 4.87 µM, a TGI (SW-620 colon) of over 100 µM and a GI50 (SR leukemia) of 3.17 µM. The TGI (SR leukemia) was over 100 µM, the GI50 (PC-3 prostate) was 7.9 µM and the TGI (PC-3 prostate) was over 100 µM. For the same compound, the GI50 (SK-MEL-2 melanoma) was 3.62 µM, the TGI (SK-MEL-2 melanoma) was 17.5 µM and the GI50 (HT29 colon) was 3.98 µM. The TGI (HT29 colon) was 25.4 µM, the GI50 (UO-31 renal) was 6.78 µM and the TGI (UO-31 renal) was 67 µM. It also gave a GI50 (U251 CNS) of 4.65 µM, a TGI (U251 CNS) of 33.8 µM and a GI50 (TK-10 renal) of 28.8 µM. For the same compound, the TGI (TK-10 renal) was 91.9 µM, the GI50 (ACHN renal) was 12.9 µM and the TGI (ACHN renal) was 75.1 µM. It also gave a GI50 (SNB-75 CNS) of 3.17 µM, a TGI (SNB-75 CNS) of 27.4 µM and a GI50 (CCRF-CEM leukemia) of 4 µM. It also gave a TGI (CCRF-CEM leukemia) of 36.1 µM, a GI50 (OVCAR-3 ovarian) of 4.31 µM and a TGI (OVCAR-3 ovarian) of 30.7 µM. It also gave a GI50 (NCI-H226 lung) of 12.8 µM, a TGI (NCI-H226 lung) of 50 µM and a GI50 (RXF 393 renal) of 7.91 µM. It also gave a TGI (RXF 393 renal) of 47 µM, a GI50 (EKVX NSCLC) of 4.88 µM and a TGI (EKVX NSCLC) of 39.1 µM. The GI50 (M14 melanoma) was 4.56 µM, the TGI (M14 melanoma) was 51.4 µM and the GI50 (HS 578T breast) was 7 µM. For the same compound, the TGI (HS 578T breast) was 78.1 µM, the GI50 (HL-60(TB) leukemia) was 3.54 µM and the TGI (HL-60(TB) leukemia) was 35.4 µM. For the same compound, the GI50 (HOP-62 NSCLC) was 8.77 µM, the TGI (HOP-62 NSCLC) was 48.9 µM and the GI50 (CAKI-1 renal) was 5.08 µM. It also gave a TGI (CAKI-1 renal) of over 100 µM, a GI50 (NCI-H23 lung) of 12.2 µM and a TGI (NCI-H23 lung) of 68 µM. For the same compound, the GI50 (LOX IMVI melanoma) was 5.44 µM, the TGI (LOX IMVI melanoma) was 19.4 µM and the GI50 (DU-145 prostate) was 18.1 µM. It also gave a TGI (DU-145 prostate) of over 100 µM, a GI50 (SF-295 CNS) of 5.06 µM and a TGI (SF-295 CNS) of 18.2 µM. It also gave a GI50 (SF-268 CNS) of 11.2 µM, a TGI (SF-268 CNS) of 51.1 µM and a GI50 (HCC-2998 colon) of 13.9 µM. It also gave a TGI (HCC-2998 colon) of 60.8 µM, a GI50 (COLO 205 colon) of 7.28 µM and a TGI (COLO 205 colon) of 26.9 µM. It also gave a GI50 (OVCAR-8 ovarian) of 16.3 µM, a TGI (OVCAR-8 ovarian) of over 100 µM and a GI50 (SK-MEL-5 melanoma) of 3.59 µM. For the same compound, the TGI (SK-MEL-5 melanoma) was 12.8 µM, the GI50 (MDA-MB-468 breast) was 3.08 µM and the TGI (MDA-MB-468 breast) was 15.6 µM. It also gave a GI50 (UACC-62 melanoma) of 3.99 µM, a TGI (UACC-62 melanoma) of 17.9 µM and a GI50 (HCT-116 colon) of 4.17 µM. For the same compound, the TGI (HCT-116 colon) was 21.7 µM, the GI50 (A498 renal) was 27 µM and the TGI (A498 renal) was 94.9 µM. The GI50 (NCI/ADR-RES ovarian) was 3.58 µM, the TGI (NCI/ADR-RES ovarian) was 30.9 µM and the GI50 (SN12C renal) was 10.7 µM. The TGI (SN12C renal) was 44.7 µM, the GI50 (KM12 colon) was 5.41 µM and the TGI (KM12 colon) was 64.7 µM. The GI50 (RPMI-8226 leukemia) was 4.82 µM, the TGI (RPMI-8226 leukemia) was 37.8 µM and the GI50 (OVCAR-4 ovarian) was 20.5 µM. It also gave a TGI (OVCAR-4 ovarian) of over 100 µM, a GI50 (A549 NSCLC) of 7.01 µM and a TGI (A549 NSCLC) of over 100 µM. The GI50 (NCI-H522 lung) was 3.41 µM, the TGI (NCI-H522 lung) was 17.2 µM and the GI50 (MDA-MB-231 breast) was 7.42 µM. The TGI (MDA-MB-231 breast) was 30.2 µM, the GI50 (SK-MEL-28 melanoma) was 12.2 µM and the TGI (SK-MEL-28 melanoma) was 97.7 µM. The GI50 (786-0 renal) was 14.5 µM, the TGI (786-0 renal) was 47.8 µM and the GI50 (HCT-15 colon) was 4.9 µM. For the same compound, the TGI (HCT-15 colon) was 24.8 µM, the GI50 (SF-539 CNS) was 6.35 µM and the TGI (SF-539 CNS) was 21.8 µM. For the same compound, the GI50 (BT-549 breast) was 7.11 µM, the TGI (BT-549 breast) was 33.5 µM and the GI50 (UACC-257 melanoma) was 16.7 µM. For the same compound, the TGI (UACC-257 melanoma) was 50.4 µM, the GI50 (K-562 leukemia) was 3.13 µM and the TGI (K-562 leukemia) was over 100 µM. For the same compound, the GI50 (T-47D breast) was 4.59 µM, the TGI (T-47D breast) was 41.3 µM and the GI50 (IGROV1 ovarian) was 6.43 µM. For the same compound, the TGI (IGROV1 ovarian) was over 100 µM, the GI50 (HOP-92 NSCLC) was 3.92 µM and the TGI (HOP-92 NSCLC) was 30.7 µM. The GI50 (MALME-3M melanoma) was 9.16 µM, the TGI (MALME-3M melanoma) was 38.2 µM and the GI50 (SNB-19 CNS) was 14.6 µM. The TGI (SNB-19 CNS) was 93.6 µM.
